US6818621B2, “Osteopontin-derived chemotactic and inhibitory agents and uses therefor” (Children's Medical Center Corporation, priority 1999, dated 2004)
Where no end group is shown, it is not given here.

What was measured:
[1] = system: MDA-MB-231 cells (CD44+ human breast adenocarcinoma cells); experiment: Chemotactic chamber (Boyden) assay, migration through polycarbonate filters; format: cell-based; settings: Table 4; cells migrating in response to peptide divided by cells migrating in response to buffer
Protocol: Each peak was then tested for mediation of chemotaxis or for its ability to inhibit OPN mediated chemotaxis using the chemotactic assay as follows (see e.g., Weber et al. (1996) Science 271:509-512). Briefly, uncoated polycarbonated filters (pore size […] ) were used to separate the upper and lower chambers of chemotactic wells. 1×10^3 MDA-MB-231 cells (CD44^+human breast adenocarcinoma cells) were added to the upper chamber and incubated in the presence or absence of the indicated 50 pmols peptide. After 4 hours, the filters were removed, fixed in methanol arid stained with hematoxylin and eosin. Cells which have responded to the peptide, migrate to various areas of the lower surface and can be counted microscopically. Each data point is reported as the mean number of migrating cells per random high power field.
Peptide 51 was identified as being chemotactic. The peptide was sequenced using a gas-phase sequenator and determined to have the sequence LVLDPK (SEQ ID NO:1). To confirm that chemotaxis was due to this peptide, a 16 amino acid peptide spanning the chemotactic sequence in OPN was synthesized and tested for its chemotactic properties. The resulting peptide, SP64 has the sequence KFHSHKDKLVLDPKSK (SEQ ID NO:2) and containing the chemotactic sequence from residues 9-14. 2×10^4 MDA-MB-231 cells were assayed for chemotactic response to the indicated peptides as described above. Each data point is reported as the mean number of migrating cells per six random high powered fields ± standard error of the mean. Each experiment was repeated four times.
To test the amino acid specificity for chemotactic response several substitutions were created in the chemotactic sequence and the new peptides tested for their ability to induce chemotaxis. Data are expressed as migratory index (cells migrating in response to peptide/cells migration in response to LVLDPK, SEQ ID NO:1).
(§1) To evaluate the potential of peptide analogues to inhibit OPN induced chemotaxis, 100 nmoles of peptide was added to the lower compartment and the response of these cells to OPN was determined as described. MI(buffer) was calculated by dividing the number of cells migrating in response to peptide by the number of cells migrating in response to buffer. MI(inhibitory) equals the number of cells migrating towards OPN in the presence of buffer divided by the number migrating towards OPN in the presence of peptide.

MDA-MB-231 cells [2] = experiment: Inhibition of OPN induced chemotaxis in the chemotactic chamber assay; format: cell-based, human; settings: Table 4; 100 nmoles of peptide; cells migrating towards OPN in presence of buffer divided by number migrating towards OPN in presence of peptide
Protocol: as §1

MDA-MB-231 cells [3] = experiment: Apoptosis by TUNEL (In situ Cell Death Detection Kit); format: cell-based, human; settings: 100 nM, 12 hours; for increase in apoptosis as compared to OPN: TUNEL
Protocol: (§2) One million MDA-MB-231 cells were incubated with 100 nM of the OPN, LVVDPK (SEQ ID NO:8), Ac-MLDP (SEQ ID NO:23) or Ac-HKDKMLDP (SEQ ID NO:24) in DME containing 10% FBS in a humidified atmosphere of 5% CO2 at […]. After 12 hours, Caspase 8 and the % of apoptotic cells were determined. Caspase was determined by a fluorescent assay using Chemicon's FLICE/Caspase-8 Fluorometric Protease Assay Kit as described by the manufacturers. Apoptosis was determined using TUNEL using the “In situ Cell Death Detection Kit” (Boehringer-Mannheim, Germany).

Caspase 8 = experiment: FLICE/Caspase-8 Fluorometric Protease Assay; format: cell-based, human; settings: 100 nM, 12 hours, MDA-MB-231 cells
Protocol: as §2

[4] = system: Peritoneal macrophages, fibroblasts or osteoblasts; experiment: Apoptosis of non-tumor cells treated with PepM; format: cell-based
breast tumor cells = experiment: Nitric oxide production, nitrate in culture supernatants (Griess reagents); format: cell-based; settings: 12 hours after incubation
Protocol: The production of nitric oxide (NO) by the breast tumor cells was assessed 12 hours after incubation in the presence of pepL by measuring the accumulation of nitrate in culture supernatants. Griess reagents were used as described by Hwang et al. (1993).

[5] = system: cells recruited into the peritoneum; experiment: In vivo chemotaxis after injection of peptide into the peritoneal cavity, lavage and flow cytometry; parameters: species or system C57 black mice; settings: coinjected with the chemotactic agent

Row | Substance | MI buffer [1] | MI inhibitory (MDA-MB-231 cells [2]) | apoptosis (in words) (MDA-MB-231 cells [3]) | increase in apoptosis as compared to OPN (MDA-MB-231 cells [3]) | increase In Caspase 8 activity (Caspase 8) | apoptosis of non-tumor cells [4] | NO production (breast tumor cells) | effect on chemotactic response to OPN of LVLDPK in vivo [5]
1 | Acetyl-HKDKMLDP (Ac-HKDKMLDP) [pepM] | 0.8 | 2 | activation of apoptosis | ~120% | ~80% | did not undergo apoptosis | – | –
2 | Acetyl-MLDP (Ac-MLDP) [pepL] | 1 | 2 | activation of apoptosis | 80% | ~65% | – | increased NO production | totally abolished the chemotactic response
